{
  "source": "PubChem BioAssay (NCI)",
  "assay_in_all_cases": "DTP human tumour cell line panel, 48 h",
  "key": {"NCI-H23 lung": {"system": "NCI-H23 lung"}, "NCI-H460 lung": {"system": "NCI-H460 lung"}, "NCI-H522 lung": {"system": "NCI-H522 lung"}, "NCI/ADR-RES ovarian": {"system": "NCI/ADR-RES ovarian"}, "OVCAR-3 ovarian": {"system": "OVCAR-3 ovarian"}, "OVCAR-4 ovarian": {"system": "OVCAR-4 ovarian"}, "OVCAR-5 ovarian": {"system": "OVCAR-5 ovarian"}, "OVCAR-8 ovarian": {"system": "OVCAR-8 ovarian"}, "PC-3 prostate": {"system": "PC-3 prostate"}, "RPMI-8226 leukemia": {"system": "RPMI-8226 leukemia"}, "RXF 393 renal": {"system": "RXF 393 renal"}, "SF-268 CNS": {"system": "SF-268 CNS"}, "SF-295 CNS": {"system": "SF-295 CNS"}, "SF-539 CNS": {"system": "SF-539 CNS"}, "SK-MEL-2 melanoma": {"system": "SK-MEL-2 melanoma"}, "SK-MEL-28 melanoma": {"system": "SK-MEL-28 melanoma"}, "SK-MEL-5 melanoma": {"system": "SK-MEL-5 melanoma"}, "SK-OV-3 ovarian": {"system": "SK-OV-3 ovarian"}, "SN12C renal": {"system": "SN12C renal"}, "SNB-19 CNS": {"system": "SNB-19 CNS"}, "SNB-75 CNS": {"system": "SNB-75 CNS"}, "SR leukemia": {"system": "SR leukemia"}, "SW-620 colon": {"system": "SW-620 colon"}, "T-47D breast": {"system": "T-47D breast"}, "TK-10 renal": {"system": "TK-10 renal"}, "U251 CNS": {"system": "U251 CNS"}, "UACC-257 melanoma": {"system": "UACC-257 melanoma"}, "UACC-62 melanoma": {"system": "UACC-62 melanoma"}, "UO-31 renal": {"system": "UO-31 renal"}},
  "note": "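In this assay, cells in 96-well plates receive the compound at five concentrations for 48 hours. Endpoints are linearly interpolated between the surrounding concentrations. At the GI50, growth is halved. At the TGI there is no net growth.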",
  "data": [
    {"smiles": "Cc1cc(=O)n2nnc3c4ccccc4ccc3n12", "values": [
      {"measurement": "TGI", "setting": "NCI-H23 lung", "result": 27.9, "unit": "µM"},
      {"measurement": "GI50", "setting": "NCI-H460 lung", "result": 13.9, "unit": "µM"},
      {"measurement": "TGI", "setting": "NCI-H460 lung", "result": 30.4, "unit": "µM"},
      {"measurement": "GI50", "setting": "NCI-H522 lung", "result": 1.54, "unit": "µM"},
      {"measurement": "TGI", "setting": "NCI-H522 lung", "result": 2.93, "unit": "µM"},
      {"measurement": "GI50", "setting": "NCI/ADR-RES ovarian", "result": 3.87, "unit": "µM"},
      {"measurement": "TGI", "setting": "NCI/ADR-RES ovarian", "result": 43.9, "unit": "µM"},
      {"measurement": "GI50", "setting": "OVCAR-3 ovarian", "result": 1.79, "unit": "µM"},
      {"measurement": "TGI", "setting": "OVCAR-3 ovarian", "result": 3.37, "unit": "µM"},
      {"measurement": "GI50", "setting": "OVCAR-4 ovarian", "result": 1.5, "unit": "µM"},
      {"measurement": "TGI", "setting": "OVCAR-4 ovarian", "result": 3.27, "unit": "µM"},
      {"measurement": "GI50", "setting": "OVCAR-5 ovarian", "result": 1.84, "unit": "µM"},
      {"measurement": "TGI", "setting": "OVCAR-5 ovarian", "result": 14.7, "unit": "µM"},
      {"measurement": "GI50", "setting": "OVCAR-8 ovarian", "result": 2.03, "unit": "µM"},
      {"measurement": "TGI", "setting": "OVCAR-8 ovarian", "result": 6.97, "unit": "µM"},
      {"measurement": "GI50", "setting": "PC-3 prostate", "result": 4.22, "unit": "µM"},
      {"measurement": "TGI", "setting": "PC-3 prostate", "result": 17.7, "unit": "µM"},
      {"measurement": "GI50", "setting": "RPMI-8226 leukemia", "result": 0.959, "unit": "µM"},
      {"measurement": "TGI", "setting": "RPMI-8226 leukemia", "result": 4.03, "unit": "µM"},
      {"measurement": "GI50", "setting": "RXF 393 renal", "result": 10.8, "unit": "µM"},
      {"measurement": "TGI", "setting": "RXF 393 renal", "result": 22.8, "unit": "µM"},
      {"measurement": "GI50", "setting": "SF-268 CNS", "result": 11, "unit": "µM"},
      {"measurement": "TGI", "setting": "SF-268 CNS", "result": 23.1, "unit": "µM"},
      {"measurement": "GI50", "setting": "SF-295 CNS", "result": 14.8, "unit": "µM"},
      {"measurement": "TGI", "setting": "SF-295 CNS", "result": 30.2, "unit": "µM"},
      {"measurement": "GI50", "setting": "SF-539 CNS", "result": 3.5, "unit": "µM"},
      {"measurement": "TGI", "setting": "SF-539 CNS", "result": 16.7, "unit": "µM"},
      {"measurement": "GI50", "setting": "SK-MEL-2 melanoma", "result": 16.5, "unit": "µM"},
      {"measurement": "TGI", "setting": "SK-MEL-2 melanoma", "result": 30.6, "unit": "µM"},
      {"measurement": "GI50", "setting": "SK-MEL-28 melanoma", "result": 13.9, "unit": "µM"},
      {"measurement": "TGI", "setting": "SK-MEL-28 melanoma", "result": 27.1, "unit": "µM"},
      {"measurement": "GI50", "setting": "SK-MEL-5 melanoma", "result": 12.8, "unit": "µM"},
      {"measurement": "TGI", "setting": "SK-MEL-5 melanoma", "result": 25.7, "unit": "µM"},
      {"measurement": "GI50", "setting": "SK-OV-3 ovarian", "result": 2.72, "unit": "µM"},
      {"measurement": "TGI", "setting": "SK-OV-3 ovarian", "result": 20.3, "unit": "µM"},
      {"measurement": "GI50", "setting": "SN12C renal", "result": 7.34, "unit": "µM"},
      {"measurement": "TGI", "setting": "SN12C renal", "result": 21.5, "unit": "µM"},
      {"measurement": "GI50", "setting": "SNB-19 CNS", "result": 12.8, "unit": "µM"},
      {"measurement": "TGI", "setting": "SNB-19 CNS", "result": 25.4, "unit": "µM"},
      {"measurement": "GI50", "setting": "SNB-75 CNS", "result": 14.9, "unit": "µM"},
      {"measurement": "TGI", "setting": "SNB-75 CNS", "result": 29.9, "unit": "µM"},
      {"measurement": "GI50", "setting": "SR leukemia", "result": 2.28, "unit": "µM"},
      {"measurement": "TGI", "setting": "SR leukemia", "result": 13.7, "unit": "µM"},
      {"measurement": "GI50", "setting": "SW-620 colon", "result": 1.63, "unit": "µM"},
      {"measurement": "TGI", "setting": "SW-620 colon", "result": 3.11, "unit": "µM"},
      {"measurement": "GI50", "setting": "T-47D breast", "result": 1.38, "unit": "µM"},
      {"measurement": "TGI", "setting": "T-47D breast", "result": 3.14, "unit": "µM"},
      {"measurement": "GI50", "setting": "TK-10 renal", "result": 1.68, "unit": "µM"},
      {"measurement": "TGI", "setting": "TK-10 renal", "result": 3.2, "unit": "µM"},
      {"measurement": "GI50", "setting": "U251 CNS", "result": 14.9, "unit": "µM"},
      {"measurement": "TGI", "setting": "U251 CNS", "result": 28.1, "unit": "µM"},
      {"measurement": "GI50", "setting": "UACC-257 melanoma", "result": 13, "unit": "µM"},
      {"measurement": "TGI", "setting": "UACC-257 melanoma", "result": 25.7, "unit": "µM"},
      {"measurement": "GI50", "setting": "UACC-62 melanoma", "result": 5.3, "unit": "µM"},
      {"measurement": "TGI", "setting": "UACC-62 melanoma", "result": 18.6, "unit": "µM"},
      {"measurement": "GI50", "setting": "UO-31 renal", "result": 1.2, "unit": "µM"},
      {"measurement": "TGI", "setting": "UO-31 renal", "result": 2.72, "unit": "µM"}
    ]}
  ]
}
